Results reported in paper PMC9745799, “Polymyxin Stereochemistry and Its Role in Antibacterial Activity and Outer Membrane Disruption” (ACS Infectious Diseases, 2022).
≈ marks a conversion by molar mass, not a printed value. Where “and” joins values, the source holds several entries; their conditions need not be identical. Equal entries are not always repeated. Where two headings read alike, the source gives them in different places. Positions of bridges follow the written chain, without caps; N, C: chain ends. Non-standard residues stand in square brackets, D forms with d. Residues, ends and D or L forms follow the SMILES beside them. *: point of attachment. dDab = NCC[C@@H](N)C(=O)O; Heptanoyl = CCCCCCC(=O)*; Dab = NCC[C@H](N)C(=O)O

Legend:
[1] = system: E. coli BW25113 (rough LPS); test: NPN uptake assay (outer membrane disruption); type: cell-based; details: NPN fluorescence after 1 h at RT, 5 mM HEPES pH 7.2 + 20 mM glucose, triplicates, result in words
Description: (§1) Bacteria were taken from glycerol stocks and grown in TSB overnight. Cultures were diluted either 50 or 100 times in Lysogeny Broth (LB) and grown at 37 °C to an OD600 of 0.5. Test compounds were prepared in HEPES buffer (5 mM, pH 7.2 + 20 mM glucose) and serially diluted (25 μL per well) on 1/2 the area of black 96-well plates with a transparent bottom. N-Phenyl-1-naphthylamine (NPN) was dissolved in acetone (0.5 mM) and diluted to 40 μM in HEPES buffer (5 mM, pH 7.2 + 20 mM glucose). 25 μL of the NPN solution was added to each well. The bacterial suspension was spin down (1000g, 10 min), and the remaining cell pellet was resuspended in half the original volume of HEPES buffer (5 mM, pH 7.2 + 20 mM glucose). 50 μL of bacterial suspension was added to each well. NPN fluorescence was measured after 1 h of incubation at RT with λex 355 ± 20 nm and λem 420 ± 20 nm. The measured fluorescence signal was corrected for NPN fluorescence in the absence of compounds (bacteria in buffer + NPN) and presented as relative fluorescence units (RFUs).

[2] = system: E. coli ATCC 25922 (smooth LPS); test: NPN uptake assay (outer membrane disruption); type: cell-based; details: NPN fluorescence after 1 h at RT, 5 mM HEPES pH 7.2 + 20 mM glucose, triplicates, result in words
Description: as §1

[3] = system: polymyxin-resistant (mcr-1 positive) E. coli; test: microbe, parasite or virus in culture; type: cell-based; details: for FICI: combination with rifampicin, CAMHB, 18 h, 37 °C, OD600, FICI ≤ 0.5 indicates synergy
Description: (§2) Selected Gram-negative bacterial strains were taken from glycerol stocks and grown overnight on blood agar. A single colony was inoculated in TSB broth at 37 °C until an optical density of 0.5 at 600 nm (OD600) was reached. The bacterial suspension was diluted in freshly prepared CAMHB to 10^6 CFU/mL. Compounds were diluted along the plate, using 25 μL of CAMHB for each dilution. Antibiotic concentrations were prepared separately in a multiwell reservoir, including a control without antibiotic. Of each antibiotic stock, 25 μL was added to three columns to obtain triplicates for every condition. To each 50 μL containing well was then added 50 μL of the 10^6 CFU/mL bacterial suspension, and the plates were sealed with breathable seals. After incubation for 18 h at 37 °C while shaking, the seals were removed and the density of the bacterial suspensions was measured at 600 nm (OD600) using a Tecan Spark plate reader. The OD600 values were transformed to a 2D gradient with the negative control as the minimum and the positive control as the maximum. The FICI was calculated using the following equation: [drawing 1] with MSCant and MSCcomp indicating the optimal synergistic concentration of antibiotic and compound and MICant and MICcomp, the corresponding MICs of the individual compounds. An FICI ≤ 0.5 indicates synergy.[48]

[4] = system: polymyxin-sensitive E. coli ATCC 25922; test: microbe, parasite or virus in culture; type: cell-based
Description: as §2

[5] = system: LPS from E. coli (O55:B5); test: Isothermal titration calorimetry (ITC), LPS binding; details: compound (1 mM) into LPS (20 µM), 20 mM HEPES pH 7, 37 °C, mean and SD of three experiments; for ΔG, fitted parameter for single site binding / ΔH, fitted parameter for single site binding / Kd: one-site model; for Kd: read-out: KD, fitted parameter for single site binding
Description: Stock solutions of LPS (10 mg/mL, 0.5 mM) were prepared in 20 mM HEPES at pH 7 by suspension, sonication, and temperature cycling between 4 and 60 °C and stored overnight prior to use. LPS from E. coli (O55:B5) was used. Lipopeptide solutions (1 mM in 20 mM HEPES, pH 7) were titrated into a suspension of LPS (0.020 mM) in the same buffer. Control titrations included the titration of peptide into buffer and buffer into the LPS suspension to determine the corresponding heat of dilution. All binding experiments were performed using a MicroCal PEAQ-ITC Automated microcalorimeter (Malvern Panalytical Ltd., Malvern, UK). The samples were equilibrated to 37 °C prior to measurement. The titrations were conducted at 37 °C under constant stirring at 750 rpm. Each experiment consisted of an initial injection of 0.3 μL followed by 25 separate injections of 1.5 μL into the sample cell of 200 μL. The time between each injection was 180 s, and the measurements were performed with the reference power set at 5 μcal s^–1 and the feedback mode set at “low”. For all calculations performed, an estimated molecular weight of 20 kDa for LPS was applied. The calorimetric data thus obtained were analyzed using MicroCal PEAQ-ITC Analysis Software Version 1.20 (Malvern Panalytical Ltd., Malvern, UK), where the integrated heat signal is corrected for the heat of dilution of the titrant.

[6] = system: polymyxin-resistant, mcr-1 positive E. coli; test: NPN uptake assay (outer membrane disruption); type: cell-based; details: E. coli mcr-1 positive; NPN fluorescence after 1 h at RT, highest concentration tested 32 μg/mL, triplicates; result in words
Description: as §1

[7] = system: E. coli BW25113; type: cell-based
Description: (§3) MICs of compounds were determined following CLSI guidelines using the microbroth dilution method in polypropylene plates. Selected Gram-negative bacterial strains (see Table S2 for strain sources) were taken from glycerol stocks and grown overnight on blood agar. Individual colonies were selected and grown in Tryptic Soy Broth (TSB) to an OD600 of 0.5. Compounds were diluted in Mueller Hinton Broth (MHB) supplemented with Mg^2+ and Ca^2+ at final concentrations of 12 and 20 mg/L, respectively (CAMHB). 50 μL was used for each well, and compounds were assessed in triplicates. Bacterial culture was diluted in CAMHB to 10^6 CFU/mL, yielding 5 × 10^5 CFU/mL upon addition of 50 μL of culture to 50 μL of compound solution. Positive and negative (sterility) controls were present on each plate. Plates were sealed with a semipermeable membrane and incubated for 22 h (A. baumannii) or 18 h (other strains) under shaking at 37 °C.

[8] = system: E. coli JW3596 (ΔwaaC); type: cell-based; details: truncated LPS, CLSI microbroth dilution, CAMHB, 18 h, 37 °C, triplicate
Description: as §3

[9] = system: P. aeruginosa ATCC 10145; type: cell-based
Description: as §3

[10] = system: E. coli mcr-1; type: cell-based; details: CLSI microbroth dilution, CAMHB, 18 h, 37 °C, triplicate
Description: as §3

[11] = system: P. aeruginosa NRZ03961; type: cell-based
Description: as §3

[12] = system: P. aeruginosa ATCC 27853; type: cell-based
Description: as §3

[13] = system: E. coli ATCC 25922; type: cell-based
Description: as §3

[14] = system: K. pneumoniae ATCC 13883; type: cell-based
Description: as §3

[15] = system: P. aeruginosa 2018-007; type: cell-based
Description: as §3

[16] = system: A. baumannii ATCC 19606; type: cell-based
Description: as §3

[17] = system: E. coli JW3594 (ΔwaaD); type: cell-based; details: truncated LPS, CLSI microbroth dilution, CAMHB, 18 h, 37 °C, triplicate
Description: as §3

[18] = E. coli ATCC 25922, checkerboard, substance alone

Compound | OM disruption (NPN uptake) [1] | OM disruption (NPN uptake) [2] | FICI ([3]; E. coli mcr-1, checkerboard) | MIC alone ([4]; ATCC 25922, 18 h) [µg/mL] | ΔΔH, maximum enthalpy observed after subtraction of dilution control [5] [kcal/mol] | ΔG, fitted parameter for single site binding [5] [kcal/mol] | ΔH, fitted parameter for single site binding [5] [kcal/mol] | Kd [5] [µM] | MIC alone [4, 18] [µg/mL] | MIC [8] [µg/mL] | MIC [10] [µg/mL] | MIC [17] [µg/mL] | also measured
CC(C)C[C@@H]1NC(=O)[C@@H](Cc2ccccc2)NC(=O)[C@H](CCN)NC(=O)[C@@H](NC(=O)[C@H](CCN)NC(=O)[C@@H](N)[C@@H](C)O)CCNC(=O)[C@H]([C@@H](C)O)NC(=O)[C@H](CCN)NC(=O)[C@H](CCN)NC1=O [PMBN, polymyxin B nonapeptide, reference compound] (H-T[Dab][Dab][Dab][dF]L[Dab][Dab]T; lactam 3-C (inferred); N-terminus assumed) | potent OM disruption | potent OM disruption | ≤ 0.14 | ≥ 256 | -7.20 ± 0.19 | -7.24 ± 0.03 | -8.4 ± 0.25 | 8 ± 0.4 | – | – | – | – | –
CCCCCCC(=O)N[C@@H](CCN)C(=O)N[C@H](C(=O)N[C@@H](CCN)C(=O)N[C@H]1CCNC(=O)[C@H]([C@@H](C)O)NC(=O)[C@H](CCN)NC(=O)[C@H](CCN)NC(=O)[C@H](CC(C)C)NC(=O)[C@@H](Cc2ccccc2)NC(=O)[C@H](CCN)NC1=O)[C@@H](C)O [PmxB4, polymyxin B4] (Heptanoyl-[Dab]T[Dab][Dab][Dab][dF]L[Dab][Dab]T; lactam 4-C) | potent OM disruption | potent OM disruption | 0.16 and 0.163 | 1 | -7.86 ± 0.10 | – | – | – | 2 | 0.06 (≈ 0.051 µM) | 4 (≈ 3.4 µM) | 0.06 (≈ 0.051 µM) | OM disruption (NPN uptake) [6]: most effective OM disruption; MIC alone ([3]; E. coli mcr-1, checkerboard, substance alone): 8 µg/mL; MIC ([7]; BW25113, 18 h): 0.5 µg/mL (≈ 0.425 µM); MIC ([9]; ATCC 10145, 18 h): 0.25 µg/mL (≈ 0.213 µM); MIC ([11]; NRZ03961, 18 h): 0.25 µg/mL (≈ 0.213 µM); MIC ([12]; ATCC 27853, 18 h): 0.25 µg/mL (≈ 0.213 µM); MIC ([13]; ATCC 25922, 18 h): 0.25 µg/mL (≈ 0.213 µM); MIC ([14]; ATCC 13883, 18 h): 0.125 µg/mL (≈ 0.106 µM); MIC ([15]; 2018-007, 18 h): 0.5 µg/mL (≈ 0.425 µM); MIC ([16]; ATCC 19606, 22 h): 0.5 µg/mL (≈ 0.425 µM)
CO[C@H]1/C=C/O[C@@]2(C)Oc3c(C)c(O)c4c(O)c(c(/C=N/N5CCN(C)CC5)c(O)c4c3C2=O)NC(=O)/C(C)=C\C=C\[C@H](C)[C@H](O)[C@@H](C)[C@@H](O)[C@@H](C)[C@H](OC(C)=O)[C@@H]1C [Rifampicin, rifampicin] | – | – | – | – | – | – | – | – | 8 | – | – | – | MIC in combination (rifampicin) ([3]; E. coli mcr-1, rifampicin in combination with PMBN (4 µg/mL)): 1 µg/mL; MIC in combination (rifampicin) ([3]; E. coli mcr-1, rifampicin in combination with PmxB4 (1 µg/mL)): 0.3 µg/mL; MIC in combination (rifampicin) ([3]; E. coli mcr-1, rifampicin in combination with ent-PMBN (32 µg/mL)): 2 µg/mL; MIC in combination (rifampicin) ([3]; E. coli mcr-1, rifampicin in combination with ent-PmxB4 (8 µg/mL)): 1 µg/mL; MIC ([3]; Escherichia coli, read-out: MIC alone): 8 µg/mL; MIC in combination (rifampicin) ([4]; E. coli ATCC 25922, rifampicin in combination with PMBN (2 µg/mL)): 0.1 µg/mL; MIC in combination (rifampicin) ([4]; E. coli ATCC 25922, rifampicin in combination with PmxB4 (1 µg/mL)): 0.5 µg/mL; MIC in combination (rifampicin) ([4]; E. coli ATCC 25922, rifampicin in combination with ent-PMBN (32 µg/mL)): 2 µg/mL; MIC in combination (rifampicin) ([4]; E. coli ATCC 25922, rifampicin in combination with ent-PmxB4 (8 µg/mL)): 0.1 µg/mL; MIC ([4]; Escherichia coli, ATCC25922, E. coli ATCC 25922, checkerboard, substance alone): 8 µg/mL
CC(C)C[C@H]1NC(=O)[C@H](Cc2ccccc2)NC(=O)[C@@H](CCN)NC(=O)[C@H](NC(=O)[C@@H](CCN)NC(=O)[C@H](N)[C@H](C)O)CCNC(=O)[C@@H]([C@H](C)O)NC(=O)[C@@H](CCN)NC(=O)[C@@H](CCN)NC1=O [ent-PMBN] (H-[dT][dDab][dDab][dDab]F[dL][dDab][dDab][dT]; lactam 3-C) | higher degree of OM perturbation | weak OM disruption | – | ≥ 256 | -4.91 ± 0.03 | -7.69 ± 0.06 | -5.2 ± 0.03 | 3.9 ± 0.4 | – | – | – | – | –
Polymyxin B sulfate [PmxB (commercial), reference compound] | – | – | – | – | – | – | – | – | – | 0.06 | 4 | 0.06 | MIC ([7]; E. coli BW25113, CLSI microbroth dilution, CAMHB, 18 h, 37 °C, triplicate): 1 µg/mL; MIC ([9]; P. aeruginosa ATCC 10145, CLSI microbroth dilution, CAMHB, 18 h, 37 °C, triplicate): 1 µg/mL; MIC ([11]; P. aeruginosa NRZ03961, CLSI microbroth dilution, CAMHB, 18 h, 37 °C, triplicate): 1 µg/mL; MIC ([12]; P. aeruginosa ATCC 27853, CLSI microbroth dilution, CAMHB, 18 h, 37 °C, triplicate): 1 µg/mL; MIC ([13]; E. coli ATCC 25922, CLSI microbroth dilution, CAMHB, 18 h, 37 °C, triplicate): 1 µg/mL; MIC ([14]; K. pneumoniae ATCC 13883, CLSI microbroth dilution, CAMHB, 18 h, 37 °C, triplicate): 0.25 µg/mL; MIC ([15]; P. aeruginosa 2018-007, CLSI microbroth dilution, CAMHB, 18 h, 37 °C, triplicate): 2 µg/mL; MIC ([16]; A. baumannii ATCC 19606, CLSI microbroth dilution, CAMHB, 22 h, 37 °C, triplicate): 0.25 µg/mL
